In patent US8268821B2, “Methods and compositions” (priority 2003, dated 2012):
Marks after values point to notes of the source that are not given here.

Test system: cancer-related neuropathic pain
Test: Open label dose escalation study of flupirtine, case studies JE and RM
Settings: for SCORE WALKING / SCORE ENJOYMENT / SCORE TOTAL ACTIVITY / SCORE MOOD / SCORE RELATIONSHIPS / SCORE SLEEP / SCORE GENERAL ACTIVITY: pain interference 1-10; for SCORE WALKING: day 1 baseline 7; for SCORE ENJOYMENT / SCORE TOTAL ACTIVITY / AVERAGE PAIN LAST 24 HOURS: day 1 baseline 8; for SCORE NAUSEA / SCORE UN[…] GAIT: day 1 baseline 2; for SCORE POOR CONCENTRATION / WHO PERFORMANCE STATUS / SCORE SLEEP: day 1 baseline 3; for SCORE DROWSINESS / SCORE POOR APPETITE: day 1 baseline 4; for WORST PAIN SCORE LAST 24 HOURS: day 1 baseline 10; for neuropathic dwascriminant function score: >0 = neuropathic, day 1 baseline 2.448; for freezing pain score / score for increased pain due to touch / score for increased pain due to weather changes / squeezing pain score: day 1 baseline 0; for burning pain score: day 1 baseline 90; for electric pain score / for shooting pain score / numbness score / score for overly sensitive to touch / tingling pain score / unpleasant pain score: day 1 baseline 95; for overwhelming pain score: day 1 baseline 98; for SCORE GENERAL ACTIVITY: day 1 baseline 5
[1] = JE day 5, flupirtine 100 mg qid
[2] = JE day 5, flupirtine 100 mg qid, scale 1-4, day 1 baseline 1
[3] = JE day 5, flupirtine 100 mg qid, scale 1-4
[4] = JE day 5, flupirtine 100 mg qid, scale to 10, day 1 baseline 1
[5] = JE day 5, flupirtine 100 mg qid, scale to 10
[6] = JE day 6, flupirtine 100 mg qid
[7] = JE day 6, flupirtine 100 mg qid, day 1 baseline 1
[8] = JE day 6, flupirtine 100 mg qid, scale 1-4, day 1 baseline 1
[9] = JE day 6, flupirtine 100 mg qid, scale 1-4
[10] = JE day 6, flupirtine 100 mg qid, scale to 10, day 1 baseline 1
[11] = JE day 6, flupirtine 100 mg qid, scale to 10
[12] = JE day 7, flupirtine 100 mg qid
[13] = JE day 7, flupirtine 100 mg qid, day 1 baseline 1
[14] = JE day 7, flupirtine 100 mg qid, scale 1-4, day 1 baseline 1
[15] = JE day 7, flupirtine 100 mg qid, scale 1-4
[16] = JE day 7, flupirtine 100 mg qid, scale to 10, day 1 baseline 1
[17] = JE day 7, flupirtine 100 mg qid, scale to 10
[18] = JE day 8, flupirtine 100 mg qid
[19] = JE day 8, flupirtine 100 mg qid, day 1 baseline 1
[20] = JE day 8, flupirtine 100 mg qid, scale 1-4
[21] = JE day 8, flupirtine 100 mg qid, scale 1-4, day 1 baseline 1
[22] = JE, day after day 8 (discharge), flupirtine 100 mg QID with Oxycontin 40 mg/24 hrs, scale to 10

## CCOC(=O)Nc1ccc(NCc2ccc(F)cc2)nc1N [flupirtine]
[1]
  SCORE WALKING: 1
  SCORE ENJOYMENT: 3
  SCORE TOTAL ACTIVITY: 1
[2]
  SCORE CONSTIPATION: 4
  SCORE INDIGESTION: 1
[3]
  SCORE NAUSEA: 1
  SCORE UN[…] GAIT: 4
  SCORE POOR CONCENTRATION: 4
  SCORE DROWSINESS: 4
  SCORE POOR APPETITE: 4
[4]
  LEAST PAIN LAST 24 HRS: 0
  PAIN SCORE RIGHT NOW: 0
[5]
  AVERAGE PAIN LAST 24 HOURS: 0
  WORST PAIN SCORE LAST 24 HOURS: 6
JE day 6, flupirtine 100 mg qid, 0=fully active, 4=completely disabled
  WHO PERFORMANCE STATUS: 3
[6]
  neuropathic dwascriminant function score: −1.048
  freezing pain score: 0
  score for increased pain due to touch: 80
  score for increased pain due to weather changes: 0
  squeezing pain score: 0
  burning pain score: 0
  electric pain score: 0
  for shooting pain score: 0
  numbness score: 0
  score for overly sensitive to touch: 0
  tingling pain score: 0
  unpleasant pain score: 0
  overwhelming pain score: 40
  SCORE SLEEP: 1
  SCORE GENERAL ACTIVITY: 1
  SCORE WALKING: 1
  SCORE ENJOYMENT: 1
  SCORE TOTAL ACTIVITY: 1
[7]
  SCORE MOOD: 1
  SCORE RELATIONSHIPS: 1
[8]
  SCORE CONSTIPATION: 1
  SCORE INDIGESTION: 1
[9]
  SCORE NAUSEA: 1
  SCORE UN[…] GAIT: 3
  SCORE POOR CONCENTRATION: 2
  SCORE DROWSINESS: 3
  SCORE POOR APPETITE: 2
[10]
  LEAST PAIN LAST 24 HRS: 0
  PAIN SCORE RIGHT NOW: 8
[11]
  AVERAGE PAIN LAST 24 HOURS: 8
  WORST PAIN SCORE LAST 24 HOURS: 9
JE day 7, flupirtine 100 mg qid, 0=fully active, 4=completely disabled
  WHO PERFORMANCE STATUS: 3
[12]
  neuropathic dwascriminant function score: −1.408
  freezing pain score: 0
  score for increased pain due to touch: 0
  score for increased pain due to weather changes: 0
  squeezing pain score: 0
  burning pain score: 0
  electric pain score: 0
  for shooting pain score: 0
  numbness score: 0
  score for overly sensitive to touch: 0
  tingling pain score: 0
  unpleasant pain score: 0
  overwhelming pain score: 0
  SCORE SLEEP: 1
  SCORE GENERAL ACTIVITY: 1
  SCORE WALKING: 1
  SCORE ENJOYMENT: 1
  SCORE TOTAL ACTIVITY: 1
[13]
  SCORE MOOD: 1
  SCORE RELATIONSHIPS: 1
[14]
  SCORE CONSTIPATION: 1
  SCORE INDIGESTION: 1
[15]
  SCORE NAUSEA: 1
  SCORE UN[…] GAIT: 2
  SCORE POOR CONCENTRATION: 1
  SCORE DROWSINESS: 3
  SCORE POOR APPETITE: 3
[16]
  LEAST PAIN LAST 24 HRS: 0
  PAIN SCORE RIGHT NOW: 0
[17]
  AVERAGE PAIN LAST 24 HOURS: 0
  WORST PAIN SCORE LAST 24 HOURS: 4
JE day 8, flupirtine 100 mg qid, 0=fully active, 4=completely disabled
  WHO PERFORMANCE STATUS: 3
[18]
  freezing pain score: 0
  score for increased pain due to touch: 0
  score for increased pain due to weather changes: 0
  squeezing pain score: 0
  burning pain score: 0
  electric pain score: 0
  for shooting pain score: 0
  numbness score: 90
  score for overly sensitive to touch: 0
  tingling pain score: 0
  unpleasant pain score: 95
  overwhelming pain score: 95
  SCORE SLEEP: 10
  SCORE GENERAL ACTIVITY: 1*
  SCORE WALKING: 1*
  SCORE ENJOYMENT: 8
  SCORE TOTAL ACTIVITY: 1*
[19]
  SCORE MOOD: 8
  SCORE RELATIONSHIPS: 1
[20]
  other symptoms hallucinations: 1-
  SCORE NAUSEA: 1*
  SCORE POOR CONCENTRATION: 1*
  SCORE DROWSINESS: 1*
  SCORE POOR APPETITE: 1*
[21]
  SCORE CONSTIPATION: 1*
  SCORE INDIGESTION: 1
  other symptom twitch: 1-
JE day 8, flupirtine 100 mg qid, scale to 10, day 1 baseline 1
  PAIN SCORE RIGHT NOW: 9
JE day 8, flupirtine 100 mg qid, scale to 10
  AVERAGE PAIN LAST 24 HOURS: 7
JE, day after day 8 (discharge), flupirtine 100 mg QID with Oxycontin 40 mg/24 hrs, 0=fully active, 4=completely disabled
  WHO performance status score: 2
[22]
  average pain score for the previous 24 hours: 0
  least pain: 0
  worst pain: 0
RM day 2, flupirtine 100 mg qid, 0=fully active, 4=completely disabled
  WHO PERFORMANCE STATUS: 3
